IC50 data for 15 compounds are collected here from patent publication US9120749B2, “Quinoline derivatives and MELK inhibitors containing the same” (ONCOTHERAPY SCIENCE, INC., priority 2010, dated 2015).

Where a name gives a salt, the structure may show the parent alone. Read-outs that look alike come from different tables or passages of the source.

The target of assay [1] is MELK (Homo sapiens, UniProt Q14680). Kind of assay: Kinase assay: MELK activity, phosphorylation of FITC-labeled histone H3 peptide measured by IMAP fluorescence polarization. In kind it is biochemical. As to conditions: read-out: IC50 (μM) (kinase assay). The procedure, abridged: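 Fluorescence polarization was measured 0.5 h (room temperature) after quenching with threefold volume of progressive binding solution. Test compounds from 12.5 mM DMSO stocks were assayed at 1% DMSO.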
MELK, sequence (Q14680 whole entry, looked up): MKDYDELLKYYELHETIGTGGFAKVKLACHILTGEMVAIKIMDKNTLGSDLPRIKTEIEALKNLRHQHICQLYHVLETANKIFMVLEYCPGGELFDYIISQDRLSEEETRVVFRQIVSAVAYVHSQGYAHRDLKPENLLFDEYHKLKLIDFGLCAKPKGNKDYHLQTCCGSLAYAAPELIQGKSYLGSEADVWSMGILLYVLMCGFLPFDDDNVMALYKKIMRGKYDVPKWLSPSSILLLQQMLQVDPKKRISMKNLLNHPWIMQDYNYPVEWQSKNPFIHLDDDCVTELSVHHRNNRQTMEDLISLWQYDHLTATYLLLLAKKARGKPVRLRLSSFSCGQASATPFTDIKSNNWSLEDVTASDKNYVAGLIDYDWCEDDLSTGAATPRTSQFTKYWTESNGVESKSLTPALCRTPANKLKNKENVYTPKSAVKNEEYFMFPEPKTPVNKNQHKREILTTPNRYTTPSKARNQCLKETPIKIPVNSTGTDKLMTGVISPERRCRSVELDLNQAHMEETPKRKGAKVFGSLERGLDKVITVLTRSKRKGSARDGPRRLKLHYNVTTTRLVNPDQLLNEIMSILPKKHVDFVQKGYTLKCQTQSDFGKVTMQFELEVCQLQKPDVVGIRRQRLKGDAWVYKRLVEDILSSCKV

The subject of assay [2] is T47D cells. Kind of assay: Cell-based assay: anti-proliferative activity, Cell Counting Kit-8, 72 hours (T47D). The method in brief: (§1)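 Proliferation read with Cell Counting Kit-8 after 72 hours of inhibitor treatment, from seeding of 2,000–3,000 cells/well. Lines: T47D, A549, BT-549; HT-1197, lacking MELK by western blot, served as negative control. IC50 derived.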
Assay [3] has as its system A549 cells. Briefly: Cell-based assay: anti-proliferative activity, Cell Counting Kit-8, 72 hours (A549). Particulars: 72 hours. The procedure, abridged:
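A549 cells seeded in 96-well plates and exposed to candidate inhibitors for 72 hours. Growth measured with Cell Counting Kit-8; IC50 values calculated from the dose response.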

Assay [4] deals with HT-1197 cells. Briefly: Cell-based assay: anti-proliferative activity, Cell Counting Kit-8, 72 hours (HT-1197, negative control without MELK expression). As to conditions: 72 hours. The method in brief: as §1
Assay [5] concerns 22Rv1. Briefly: Cell-based assay: anti-proliferative activity, Cell Counting Kit-8, 72 hours (22Rv1). As to conditions: Homo sapiens; 22Rv1 cells. The protocol:
Active candidate inhibitors against MELK were evaluated for their target-specific cytotoxicity using T47D, A549, BT-549, and HT-1197 cells was used for negative control. 100 micro-L of cell suspension was seeded onto 96-well microtiter plate (ViewPlate-96FTC, PerkinElmer). The initial cell concentration of T47D, A549, BT-549, and HT-1197 were 3,000 cells/well, 2,000 cells/well and 2,500 cells/well, respectively. Cellular growth was determined using Cell Counting Kit-8 (DOJINDO) at 72 hours after the exposure of the candidate inhibitors. […] Accurate IC50 values were calculated as described previously.

Assay [6] concerns DU4475. Briefly: Cell-based assay: anti-proliferative activity, Cell Counting Kit-8, 72 hours (DU4475). Particulars: DU4475 cells; hydrochloride.
In assay [7] the test system is 22Rv1 cells. Briefly: Cell-based assay: anti-proliferative activity, Cell Counting Kit-8, 72 hours (22Rv1). Particulars: Homo sapiens.
Assay [8] relates to DU4475 cells. Kind of assay: Cell-based assay: anti-proliferative activity, Cell Counting Kit-8, 72 hours (DU4475).
Assay [9] concerns 22Rv1 cells. Kind of assay: Cell-based assay: anti-proliferative activity, Cell Counting Kit-8, 72 hours (22Rv1). As to conditions: Homo sapiens. This is another data set of the same source.
The subject of assay [10] is DU4475 cells. Kind of assay: Cell-based assay: anti-proliferative activity, Cell Counting Kit-8, 72 hours (DU4475). The source holds these as a separate data set.
Setting [11] is: HT1197 cells (negative control, no MELK expression), hydrochloride.
The mark [12] stands for this setting: Homo sapiens, HT1197, 72 h, HT1197 cells (negative control).
Setting [13] is: HT1197 cells (negative control), hydrochloride.

As for `NCc1ccc(Nc2c(C(=O)C3CC3)cnc3ccc(-c4cc(Cl)c(O)c(Cl)c4)cc23)cc1` [Example 508, (4-(4-(aminomethyl)phenylamino)-6-(3,5-dichloro-4-hydroxyphenyl)quinolin-3-yl)(cyclopropyl)methanone hydrochloride], the IC50 in [1] (hydrochloride) amounted to 0.0017 µM; in [2] (72 hours, hydrochloride), 0.078 µM; in assay [3] (hydrochloride), 0.067 µM; in assay [4] (setting [11]) it was 0.49 µM; in [5], 0.099 µM; in [6], 0.02 µM.

Take `CN[C@H]1CC[C@H](Nc2c(C(=O)C3CC3)cnc3ccc(-c4cc(Cl)c(O)c(OC)c4)cc23)CC1` [Example 517, {6-(3-Chloro-4-hydroxy-5-methoxyphenyl)-4-[trans-4-(methylamino)cyclohexylamino]quinolin-3-yl}(cyclopropyl)methanone]: the IC50 in [1] amounted to 0.0014 µM; in [2] (Homo sapiens, T47D, 72 h), 0.067 µM; in [3] (Homo sapiens, A549, 72 h), 0.072 µM; in assay [4] (setting [12]) it was 0.38 µM; in [7] it was 0.18 µM; in [8] (Homo sapiens, DU-4475, 72 h), 0.048 µM.

Consider `CN[C@H]1CC[C@H](Nc2c(C(C)=O)cnc3ccc(-c4cc(Cl)c(O)c(OC)c4)cc23)CC1` [Example 543, 1-(6-(3-chloro-4-hydroxy-5-methoxyphenyl)-4-(1R,4R)-4-(methylamino)cyclohexylamino)quinolin-3-yl)ethanone dihydrochloride], for which the concentration for half-maximal inhibition (IC50) came out at 0.0018 µM in assay [1] (dihydrochloride); 0.047 µM in assay [2] (72 hours, dihydrochloride); 0.076 µM in assay [3] (dihydrochloride); 1.1 µM in [4] (HT1197 cells (negative control), dihydrochloride); 0.14 µM in [7]; 0.051 µM in assay [8] (dihydrochloride).

`O=C(c1cnc2ccc(-c3cc(Cl)c(O)c(Cl)c3)cc2c1N[C@H]1CC[C@H](CN2CCCC2)CC1)C1CC1` [Example 585, cyclopropyl(6-(3,5-dichloro-4-hydroxyphenyl)-4-(1R,4R)-4-(pyrrolidin-1-ylmethyl)cyclohexylamino)quinolin-3-yl)methanone hydrochloride]: the concentration for half-maximal inhibition (IC50) came out at 0.12 µM in assay [2] (72 hours, hydrochloride); 0.073 µM in [3] (hydrochloride); 0.78 µM in assay [4] (setting [13]); 0.1 µM in [7]; 0.043 µM in assay [8] (hydrochloride).

As to `O=C(c1cnc2ccc(-c3cc(F)c(O)c(Cl)c3)cc2c1N[C@H]1CC[C@H](CN2CCCC2)CC1)C1CC1` [Example 588, (6-(3-chloro-5-fluoro-4-hydroxyphenyl)-4-(1R,4R)-4-(pyrrolidin-1-ylmethyl)cyclohexylamino)quinolin-3-yl)(cyclopropyl)methanone hydrochloride], the IC50 in assay [1] (hydrochloride) was 0.0037 µM; in assay [2] (72 hours, hydrochloride), 0.091 µM; in assay [3] (hydrochloride) it was 0.096 µM; in assay [4] (setting [13]), 0.46 µM; in [7], 0.16 µM; in [8] (hydrochloride), 0.063 µM.

In the case of `CC(C)(N)c1ccc(Nc2c(C(=O)C3CC3)cnc3ccc(-c4cc(Cl)c(O)c(Cl)c4)cc23)cc1` [Example 602, {4-[4-(2-Aminopropan-2-yl)phenylamino]-6-(3,5-dichloro-4-hydroxyphenyl)quinolin-3-yl}(cyclopropyl)methanone], the IC50 in [1] amounted to 0.0011 µM; in assay [2] (72 hours), 0.13 µM; in assay [3], 0.074 µM; in [4] (HT1197 cells (negative control)), 0.73 µM; in [7], 0.082 µM; in assay [8], 0.038 µM.

`CC(C)(N)c1ccc(Nc2c(C(=O)C3CC3)cnc3ccc(-c4cc(F)c(O)c(Cl)c4)cc23)cc1` [Example 604, {4-[4-(2-Aminopropan-2-yl)phenylamino]-6-(3-chloro-5-fluoro-4-hydroxyphenyl)quinolin-3-yl}(cyclopropyl)methanone]: the IC50 was 0.0028 µM in [1]; 0.094 µM in [2] (Homo sapiens, T47D, 72 h); 0.097 µM in assay [3] (Homo sapiens, A549, 72 h); 0.79 µM in assay [4] (setting [12]); 0.087 µM in assay [7]; 0.039 µM in [8] (Homo sapiens, DU-4475, 72 h).

On to `CN(C)CCc1ccc(Nc2c(C(=O)C3CC3)cnc3ccc(-c4cc(Cl)c(O)c(Cl)c4)cc23)cc1` [Example 614, cyclopropyl(6-(3,5-dichloro-4-hydroxyphenyl)-4-(4-(2-(dimethylamino)ethyl)phenylamino)quinolin-3-yl)methanone hydrochloride], for which the IC50 in assay [1] (hydrochloride) was 0.0016 µM; in [2] (72 hours, hydrochloride), 0.12 µM; in [4] (setting [13]) it was 1.6 µM; in assay [7] it was 0.12 µM; in [8] (hydrochloride), 0.024 µM.

For the compound `CN1CCN(C[C@H]2CC[C@H](Nc3c(C(=O)C4CC4)cnc4ccc(-c5cc(Cl)c(O)c(Cl)c5)cc34)CC2)CC1` [Example 619, cyclopropyl(6-(3,5-dichloro-4-hydroxyphenyl)-4-(1R,4R)-4-((4-methylpiperazin-1-yl)methyl)cyclohexylamino)quinolin-3-yl)methanone hydrochloride], the IC50 in assay [2] (72 hours, hydrochloride) stood at 0.32 µM; in assay [3] (hydrochloride), 0.28 µM; in assay [4] (setting [13]) it was 2.6 µM; in [7], 0.51 µM; in [8] (hydrochloride) it was 0.15 µM.

For `N[C@H]1CCCN(c2ccc(Nc3c(C(=O)C4CC4)cnc4ccc(-c5cc(Cl)c(O)c(Cl)c5)cc34)cn2)C1` [Example 647, (S)-(4-(6-(3-aminopiperidin-1-yl)pyridin-3-ylamino)-6-(3,5-dichloro-4-hydroxyphenyl)quinolin-3-yl)(cyclopropyl)methanone hydrochloride], the 50% inhibitory concentration (IC50) in [1] (hydrochloride) was found to be 0.0015 µM; in [2] (72 hours, hydrochloride) it was 0.03 µM; in assay [3] (hydrochloride), 0.08 µM; in assay [4] (setting [11]), 0.75 µM; in assay [9], 0.03 µM; in [10] (hydrochloride), 0.015 µM.

On to `CC(=O)c1cnc2ccc(-c3cc(Cl)c(O)c(Cl)c3)cc2c1Nc1ccc(CN2CCN(C)CC2)cc1` [Example 655, 1-(6-(3,5-dichloro-4-hydroxyphenyl)-4-(4-((4-methylpiperazin-1-yl)methyl)phenylamino)quinolin-3-yl)ethanone hydrochloride], for which the IC50 in assay [1] (hydrochloride) worked out at 0.0029 µM; in assay [2] (72 hours, hydrochloride), 0.072 µM; in assay [3] (hydrochloride) it was 0.23 µM; in [4] (setting [11]) it was 7.8 µM; in assay [9], 0.18 µM; in [10] (hydrochloride) it was 0.097 µM.

With `CN(C)C1CCN(Cc2ccc(Nc3c(C(=O)C4CC4)cnc4ccc(-c5cc(Cl)c(O)c(Cl)c5)cc34)cc2)C1` (stereo not drawn) [Example 695, cyclopropyl(6-(3,5-dichloro-4-hydroxyphenyl)-4-(4-((3-(dimethylamino)pyrrolidin-1-yl)methyl)phenylamino)quinolin-3-yl)methanone hydrochloride], the half-inhibitory concentration (IC50) in assay [2] (72 hours, hydrochloride) was 0.26 µM; in assay [3] (hydrochloride), 0.13 µM; in assay [4] (Homo sapiens, HT1197, 72 h, HT1197 cells (negative control, no MELK expression)), 5.8 µM; in [9], 0.23 µM; in [10] (hydrochloride), 0.1 µM.

On to `CCC(=O)c1cnc2ccc(-c3cc(Cl)c(O)c(Cl)c3)cc2c1N[C@H]1CC[C@H](CN(C)C)CC1` [Example 716, 1-(6-(3,5-dichloro-4-hydroxyphenyl)-4-((trans-4-((dimethylamino)methyl)cyclohexyl)amino)quinolin-3-yl)propan-1-one dihydrochloride], for which the IC50 in assay [1] (dihydrochloride) came out at 0.0016 µM; in assay [2] (72 hours, dihydrochloride) it was 0.14 µM; in assay [3] (dihydrochloride) it was 0.12 µM; in [4] (HT1197 cells (negative control, no MELK expression), dihydrochloride), 0.82 µM; in [9] it was 0.14 µM; in assay [10] (dihydrochloride), 0.055 µM.

As to `CC(=O)c1cnc2ccc(-c3cc(F)c(O)c(Cl)c3)cc2c1Nc1ccc(N2CCCC(N)C2)nc1` (stereo not drawn) [Example 733, 1-(4-(6-(3-aminopiperidin-1-yl)pyridin-3-ylamino)-6-(3-chloro-5-fluoro-4-hydroxyphenyl)quinolin-3-yl)ethanone], the IC50 amounted to 0.00099 µM in assay [1]; 0.0035 µM in [2] (72 hours); 0.0086 µM in [3]; 0.064 µM in [4] (HT1197 cells (negative control, no MELK expression)); 0.0064 µM in [9]; 0.01 µM in [10].

In the case of `CC(=O)c1cnc2ccc(-c3cc(Cl)c(O)c(Cl)c3)cc2c1N[C@H]1CC[C@H](CCN(C)C)CC1` [Example 740, 1-(6-(3,5-dichloro-4-hydroxyphenyl)-4-(trans-4-(2-(dimethylamino)ethyl)cyclohexylamino)quinolin-3-yl)ethanone hydrochloride], the half-inhibitory concentration (IC50) in [2] (72 hours, hydrochloride) was 0.099 µM; in assay [4] (setting [11]) it was 3.5 µM; in assay [9], 0.17 µM; in [10] (hydrochloride), 0.087 µM.
